In experiment [1] the test system is Mycobacterium tuberculosis. As to the kind of experiment: Antimycobacterial activity against multidrug resistant Mycobacterium tuberculosis. The format is functional.
Experiment [2] deals with Mycobacterium tuberculosis. The experiment in a line: Antimycobacterial activity against extensively drug resistant Mycobacterium tuberculosis. The format is functional.

For 1 compound, MIC results are on record in ChEMBL document CHEMBL5223077, “Recent advances on synthesis and biological activities of aurones” (Bioorg Med Chem, 2021).

As usually defined, the MIC is the smallest concentration in the dilution series that meets the test's criterion for growth inhibition. A low value points to inhibition by little substance.

≈ marks a conversion by molar mass, not a printed value.

Turning to `CC(=O)N1/C(=C\c2ccc(-c3ccsc3)cc2)C(=O)c2ccccc21`, the minimum inhibitory concentration (MIC) in experiment [1] and in experiment [2] was 7.55 µM (≈ 2.61 µg/mL) throughout.
